In patent publication US4112097A, “Antihypertensive agents” (Abbott Laboratories, priority 1977, dated 1978):
Where a name gives a salt, the structure may show the parent alone.

Key:
[1] = system: spontaneously hypertensive (SH) rats; assay: Antihypertensive effect (blood pressure and heart rate) in spontaneously hypertensive rats; format: in vivo, rat; conditions: for Percent Change BP (blood pressure) / Percent Change HR (heart rate): N=4, mean; for Percent Change (antihypertensive effect): individual values of 2 rats
Procedure: The screening is conducted as follows:
Male spontaneously hypertensive (SH) rats are trained to be restrained in a wire mesh cylinder in a warming box, at least two training cycles being conducted before testing. The rats are warmed for about 1/2 hour period to blood pressure measurement, the warming box being maintained at a constant temperature of 36° C.
An occluding cuff attached to the programed sphymomanometer is placed near the base of the tail of each rat and the pressure in the cuff is increased automatically from 0 to 250 milimeters of mercury (mm Hg) at a rate of 10 mm Hg per second. The total time for each cycle of inflation and deflation of the cuff is 50 seconds and the interval between cycles is one minute.
A photocell is placed distal to the cuff to record the pulses due to forward motion of blood flow with each heart beat. As the pressure in the cuff increases, the pulse disappears completely at a point where cuff pressure equals or exceeds the arterial blood pressure and it reappears during deflation at approximately the same pressure. Five interference free signals for deflation are recorded for each rat. Rats with a blood pressure of 180 mm Hg or more during the control period are used in the study. Blood pressure and heart rate readings are recorded on a model VII Grass polygraph at intervals of 1, 3, 5 and 24 hours after administration of the drug.

physchem = conditions: water
Procedure: The water in the filtrate was removed in vacuo and the residue weighed and found to be 16.7 mg.

[2] = intraperitoneal 0.3 mg/kg, 1 hour
[3] = intraperitoneal 0.3 mg/kg, 3 hours
[4] = intraperitoneal 0.3 mg/kg, 5 hours
[5] = intraperitoneal 0.3 mg/kg, 24 hours
[6] = intraperitoneal 1 mg/kg, 1 hour
[7] = intraperitoneal 1 mg/kg, 3 hours
[8] = intraperitoneal 1 mg/kg, 5 hours
[9] = intraperitoneal 1 mg/kg, 24 hours
[10] = intraperitoneal 3 mg/kg, 1 hour
[11] = intraperitoneal 3 mg/kg, 3 hours
[12] = intraperitoneal 3 mg/kg, 5 hours
[13] = intraperitoneal 3 mg/kg, 24 hours
[14] = intraperitoneal 10 mg/kg, 1 hour
[15] = intraperitoneal 10 mg/kg, 3 hours
[16] = intraperitoneal 10 mg/kg, 5 hours
[17] = intraperitoneal 10 mg/kg, 24 hours
[18] = intraperitoneal 30 mg/kg, 1 hour
[19] = intraperitoneal 30 mg/kg, 3 hours
[20] = intraperitoneal 30 mg/kg, 5 hours
[21] = intraperitoneal 30 mg/kg, 24 hours

**Q.** Which results are given for `COc1cc2nc(N3CCN(C(=O)C4CCCO4)CC3)nc(N)c2cc1OC` (centres unmarked) [Formula II, 2[4(tetrahydro-2-furoyl)-piperazino]-4-amino-6,7-dimethoxyquinazoline]?
**A.** antihypertensive effect in words ([1]; SH rats): potent antihypertensive agents which lower the blood pressure of spontaneously hypertensive rats; heart rate in words ([1]; SH rats): without causing any significant changes in heart rate; Percent Change BP (blood pressure) [1, 2]: -22.3%; Percent Change HR (heart rate) [1, 2]: 20.0%; Percent Change BP (blood pressure) [1, 3]: -26.5%; Percent Change HR (heart rate) [1, 3]: 10.3%; Percent Change BP (blood pressure) [1, 4]: -20.5%; Percent Change HR (heart rate) [1, 4]: 14.3%; Percent Change BP (blood pressure) [1, 5]: 2.5%; Percent Change HR (heart rate) [1, 5]: 10.0%; Percent Change BP (blood pressure) [1, 6]: -26.5%; Percent Change HR (heart rate) [1, 6]: 22.8%; Percent Change BP (blood pressure) [1, 7]: -27.5%; Percent Change HR (heart rate) [1, 7]: 2.8%; Percent Change BP (blood pressure) [1, 8]: -17.0%; Percent Change HR (heart rate) [1, 8]: 11.5%; Percent Change BP (blood pressure) [1, 9]: 3.8%; Percent Change HR (heart rate) [1, 9]: -9.5%; Percent Change BP (blood pressure) [1, 10]: -45.3%; Percent Change HR (heart rate) [1, 10]: 7.8%; Percent Change BP (blood pressure) [1, 11]: -39.0%; Percent Change HR (heart rate) [1, 11]: -1.5%; Percent Change BP (blood pressure) [1, 12]: -40.0%; Percent Change HR (heart rate) [1, 12]: 3.0%; Percent Change BP (blood pressure) [1, 13]: -2.3%; Percent Change HR (heart rate) [1, 13]: -0.5%; Percent Change BP (blood pressure) [1, 14]: -49.8%; Percent Change HR (heart rate) [1, 14]: 9.0%; Percent Change BP (blood pressure) [1, 15]: -41.5%; Percent Change HR (heart rate) [1, 15]: 24.5%; Percent Change BP (blood pressure) [1, 16]: -41.8%; Percent Change HR (heart rate) [1, 16]: 34.5%; Percent Change BP (blood pressure) [1, 17]: -7.5%; Percent Change HR (heart rate) [1, 17]: 14.0%; Percent Change BP (blood pressure) [1, 18]: -59.5%; Percent Change HR (heart rate) [1, 18]: -9.0%; Percent Change BP (blood pressure) [1, 19]: -42.3%; Percent Change HR (heart rate) [1, 19]: 1.8%; Percent Change BP (blood pressure) [1, 20]: -44.5%; Percent Change HR (heart rate) [1, 20]: 5.3%; Percent Change BP (blood pressure) [1, 21]: -22.3%; Percent Change HR (heart rate) [1, 21]: 5.8%; Percent Change BP (blood pressure) ([1]; oral 0.03 mg/kg, 1 hour): -5.3%; Percent Change HR (heart rate) ([1]; oral 0.03 mg/kg, 1 hour): -4.3%; Percent Change BP (blood pressure) ([1]; oral 0.03 mg/kg, 3 hours): -1.8%; Percent Change HR (heart rate) ([1]; oral 0.03 mg/kg, 3 hours): -8.5%; Percent Change BP (blood pressure) ([1]; oral 0.03 mg/kg, 5 hours): -9.3%; Percent Change HR (heart rate) ([1]; oral 0.03 mg/kg, 5 hours): -14.5%; Percent Change BP (blood pressure) ([1]; oral 0.03 mg/kg, 24 hours): -3.3%; Percent Change HR (heart rate) ([1]; oral 0.03 mg/kg, 24 hours): -8.8%; Percent Change BP (blood pressure) ([1]; oral 0.1 mg/kg, 1 hour): 3.8%; Percent Change HR (heart rate) ([1]; oral 0.1 mg/kg, 1 hour): 3.0%; Percent Change BP (blood pressure) ([1]; oral 0.1 mg/kg, 3 hours): 1.8%; Percent Change HR (heart rate) ([1]; oral 0.1 mg/kg, 3 hours): 4.8%; Percent Change BP (blood pressure) ([1]; oral 0.1 mg/kg, 5 hours): -7.3%; Percent Change HR (heart rate) ([1]; oral 0.1 mg/kg, 5 hours): -6.8%; Percent Change BP (blood pressure) ([1]; oral 0.1 mg/kg, 24 hours): -1.5%; Percent Change HR (heart rate) ([1]; oral 0.1 mg/kg, 24 hours): -0.3%; Percent Change BP (blood pressure) ([1]; oral 0.3 mg/kg, 1 hour): -15.8%; Percent Change HR (heart rate) ([1]; oral 0.3 mg/kg, 1 hour): -1.0%; Percent Change BP (blood pressure) ([1]; oral 0.3 mg/kg, 3 hours): -22.8%; Percent Change HR (heart rate) ([1]; oral 0.3 mg/kg, 3 hours): -2.8%; Percent Change BP (blood pressure) ([1]; oral 0.3 mg/kg, 5 hours): -21.3%; Percent Change HR (heart rate) ([1]; oral 0.3 mg/kg, 5 hours): -2.8%; Percent Change BP (blood pressure) ([1]; oral 0.3 mg/kg, 24 hours): 2.0%; Percent Change HR (heart rate) ([1]; oral 0.3 mg/kg, 24 hours): 10.5%; Percent Change BP (blood pressure) ([1]; oral 1 mg/kg, 1 hour): -15.8%; Percent Change HR (heart rate) ([1]; oral 1 mg/kg, 1 hour): -9.0%; Percent Change BP (blood pressure) ([1]; oral 1 mg/kg, 3 hours): -17.3%; Percent Change HR (heart rate) ([1]; oral 1 mg/kg, 3 hours): -9.3%; Percent Change BP (blood pressure) ([1]; oral 1 mg/kg, 5 hours): -22.5%; Percent Change HR (heart rate) ([1]; oral 1 mg/kg, 5 hours): -8.5%; Percent Change BP (blood pressure) ([1]; oral 1 mg/kg, 24 hours): 3.5%; Percent Change HR (heart rate) ([1]; oral 1 mg/kg, 24 hours): -4.5%; Percent Change BP (blood pressure) ([1]; oral 3 mg/kg, 1 hour): -29.0%; Percent Change HR (heart rate) ([1]; oral 3 mg/kg, 1 hour): -9.3%; Percent Change BP (blood pressure) ([1]; oral 3 mg/kg, 3 hours): -33.3%; Percent Change HR (heart rate) ([1]; oral 3 mg/kg, 3 hours): -11.0%; Percent Change BP (blood pressure) ([1]; oral 3 mg/kg, 5 hours): -31.5%; Percent Change HR (heart rate) ([1]; oral 3 mg/kg, 5 hours): -11.0%; Percent Change BP (blood pressure) ([1]; oral 3 mg/kg, 24 hours): -12.3%; Percent Change HR (heart rate) ([1]; oral 3 mg/kg, 24 hours): -5.3%; Percent Change BP (blood pressure) ([1]; oral 10 mg/kg, 1 hour): -37.0%; Percent Change HR (heart rate) ([1]; oral 10 mg/kg, 1 hour): 12.3%; Percent Change BP (blood pressure) ([1]; oral 10 mg/kg, 3 hours): -42.0%; Percent Change HR (heart rate) ([1]; oral 10 mg/kg, 3 hours): 16.5%; Percent Change BP (blood pressure) ([1]; oral 10 mg/kg, 5 hours): -38.0%; Percent Change HR (heart rate) ([1]; oral 10 mg/kg, 5 hours): -10.3%; Percent Change BP (blood pressure) ([1]; oral 10 mg/kg, 24 hours): -12.0%; Percent Change HR (heart rate) ([1]; oral 10 mg/kg, 24 hours): 1.5%; Percent Change BP (blood pressure) ([1]; oral 30 mg/kg, 1 hour): -30.0%; Percent Change HR (heart rate) ([1]; oral 30 mg/kg, 1 hour): -9.8%; Percent Change BP (blood pressure) ([1]; oral 30 mg/kg, 3 hours): -23.8%; Percent Change HR (heart rate) ([1]; oral 30 mg/kg, 3 hours): -8.8%; Percent Change BP (blood pressure) ([1]; oral 30 mg/kg, 5 hours): -26.0%; Percent Change HR (heart rate) ([1]; oral 30 mg/kg, 5 hours): -15.5%; Percent Change BP (blood pressure) ([1]; oral 30 mg/kg, 24 hours): -4.0%; Percent Change HR (heart rate) ([1]; oral 30 mg/kg, 24 hours): -8.0%

**Q.** With `COc1cc2nc(N3CCN(C(=O)C4CCCCO4)CC3)nc(N)c2cc1OC` (centres unmarked) [2-[4(Tetrahydropyran-2-Carbonyl)Piperazinyl]-4-Amino-6,7-Dimethoxyquinazoline Hydrochloride] as the compound, how does the solubility (physchem) read?
**A.** 56.5 mg/mL

**Q.** With `COc1cc2nc(N3CCN(C(=O)C4CCCCO4)CC3)nc(N)c2cc1OC` (centres unmarked) [Formula III, 2-[4(tetrahydropyran-2-carbonyl)piperazinyl]-4-amino-6,7-dimethoxyquinazoline] as the compound, how does the “Percent Change (antihypertensive effect)” value [1, 18] read?
**A.** -58%

**Q.** What about the “Percent Change (antihypertensive effect)” value [1, 19] of the same compound?
**A.** -71%

**Q.** And the “Percent Change (antihypertensive effect)” value [1, 20]?
**A.** -47%

**Q.** And the “Percent Change (antihypertensive effect)” value [1, 21]?
**A.** -28%

**Q.** What about the “Percent Change (antihypertensive effect)” value ([1]; oral 1 mg/kg, 1 hour, 1 mg/kg) of the same compound?
**A.** -34%

**Q.** What about the “Percent Change (antihypertensive effect)” value ([1]; oral 1 mg/kg, 3 hours, 1 mg/kg) of the same compound?
**A.** -25%

**Q.** What about the “Percent Change (antihypertensive effect)” value ([1]; oral 1 mg/kg, 5 hours, 1 mg/kg) of the same compound?
**A.** -21%

**Q.** What about the “Percent Change (antihypertensive effect)” value ([1]; oral 1 mg/kg, 24 hours, 1 mg/kg) of the same compound?
**A.** -7%
